Experimental data published in patent publication US20110046018A1, “SERS-BASED, SINGLE STEP, REAL-TIME DETECTION OF PROTEIN KINASE AND/OR PHOSPHATASE ACTIVITY” (priority 2007, published 2011).
Entries after “also recorded” stand apart in the source; their conditions may differ.

How the values were obtained:
[1] = biological target: Src kinase (Homo sapiens, UniProt P12931); test: SERS peptide-conjugated nanoprobe assay of Src kinase inhibition; assay type: biochemical; conditions: with increasing concentration of inhibitor
Procedure: Src kinase SERS probes were tested and calibrated using purified p60 cellular Src kinase first. The real time peptide SERS spectra were recorded in the reaction with 10 nM Src kinase at 37° C. […] The phosphorylation level was defined as the normalized ratio of peak intensities between 1004 cm^−1 and 1260 cm^−1. […] The real time phosphorylation level in the reactions was characterized with various concentrations of Src kinase. […] The reaction constants of the Src kinase at different concentration can be calculated using the Michaelis-Maten model.
Different Src kinase inhibitors were tested using the peptide-conjugated nanoprobe assay. The phosphorylation level of the Src kinase with the addition of the inhibitors PP2, PP3 and SU5656 was tested. […] The IC50 concentrations for the three inhibitors were characterized respectively.
A microscopy system with Raman spectrometer was used to acquire Raman scattering spectra from single nanocrescents. […] A 785 nm semiconductor laser was used in our experiments as the excitation source of Raman scattering, and the laser beam was focused by a 40× objective lens on the nanocrescent. The excitation power was measured by a photometer (Newport, Calif.) to be ˜0.8 mW. The Raman scattering light was then collected through the same optical pathway through a long-pass filter and analyzed by the spectrometer.

[2] = system: substrate peptide for Src kinase (SEQ ID NO:1)
[3] = biological target: substrate peptide for Src kinase (SEQ ID NO:1); test: cell-based or functional assay

Chain of Src kinase (P12931 whole entry): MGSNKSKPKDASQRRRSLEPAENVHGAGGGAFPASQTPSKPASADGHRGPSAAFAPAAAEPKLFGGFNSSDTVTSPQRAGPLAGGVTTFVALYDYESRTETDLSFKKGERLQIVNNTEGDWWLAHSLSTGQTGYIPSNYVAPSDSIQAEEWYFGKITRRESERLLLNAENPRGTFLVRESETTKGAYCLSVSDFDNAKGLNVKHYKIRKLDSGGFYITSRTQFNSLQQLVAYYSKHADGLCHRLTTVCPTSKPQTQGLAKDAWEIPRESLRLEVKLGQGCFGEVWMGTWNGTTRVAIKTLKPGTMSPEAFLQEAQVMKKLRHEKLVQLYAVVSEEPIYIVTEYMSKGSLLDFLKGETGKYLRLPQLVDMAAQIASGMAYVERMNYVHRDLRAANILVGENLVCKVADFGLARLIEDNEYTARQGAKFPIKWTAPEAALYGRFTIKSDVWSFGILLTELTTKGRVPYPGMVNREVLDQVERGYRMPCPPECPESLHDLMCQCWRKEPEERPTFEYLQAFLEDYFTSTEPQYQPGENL

With `CC(C)(C)n1nc(-c2ccc(Cl)cc2)c2c(N)ncnc21` [PP2] the “phosphorylation level of the Src kinase with the addition of the inhibitors” value (from here on “phosphorylation level … of the inhibitors”) [1] was “decreases significantly”.

With `Nc1ncnc2c1cnn2-c1ccccc1` [PP3] the “phosphorylation level … of the inhibitors” value [1] was “decreases significantly”.

`CN(C)S(=O)(=O)c1ccc2c(c1)/C(=C/c1cc3c([nH]1)CCCC3)C(=O)N2` [SU5656] was tested, and the “phosphorylation level … of the inhibitors” value [1] was “decreases significantly”.

purified p60 cellular Src kinase was tested, and the “minimal detectable concentration of Src kinase (SERS phosphorylation assay)” value [2] was “the minimal detectable concentration is above 10 pM” and the “phosphorylation level (normalized ratio of peak intensities between 1004 cm^-1 and 1260 cm^-1, SERS)” value [2] was “increased more than 6-fold after the reactions with 10 nM Src kinase; also recorded: The phosphorylation level saturated at around 7 for high concentration of Src kinase”.

“virus Src protein (in crude lysate of transfected 3T9 mouse fibroblast cells) (enzyme)” showed a phosphorylation level (SERS, crude cell lysate) [3] of 3 times.
